Data from ChEMBL document CHEMBL1146362, “Organoiodine(III) mediated synthesis of 3,9-diaryl- and 3,9-difuryl-bis-1,2,4-triazolo[4,3-a][4,3-c]pyrimidines as antibacterial agents” (2007).
Values after ≈ are worked out from the molar mass of the structure shown. Active and inactive are the calls of the source. No cut-off for these calls is given here.

How the values were obtained:
Salmonella typhi [1] = experiment: Antibacterial activity against Salmonella typhi MTCC 733 after 24 hrs by agar diffusion assay; assay type: functional, Salmonella enterica subsp. enterica serovar Typhi
Bacillus subtilis [2] = experiment: Antibacterial activity against Bacillus subtilis MTCC 121 after 24 hrs by agar dilution assay; assay type: functional; conditions: MTCC 121, 24 h
[3] = tested on: Staphylococcus epidermidis; experiment: Antibacterial activity against Staphylococcus epidermidis MTCC 2639 after 24 hrs by agar dilution assay; assay type: functional; conditions: MTCC 2639, 24 h
[4] = tested on: Staphylococcus epidermidis; experiment: Antibacterial activity against Staphylococcus epidermidis MTCC 2639 after 24 hrs by agar diffusion assay; assay type: functional
Staphylococcus aureus [5] = experiment: Antibacterial activity against Staphylococcus aureus MTCC 3160 after 24 hrs by agar dilution assay; assay type: functional; conditions: MTCC 3160, 24 h
Bacillus subtilis [6] = experiment: Antibacterial activity against Bacillus subtilis MTCC 121 after 24 hrs by agar diffusion assay; assay type: functional
Escherichia coli [7] = experiment: Antibacterial activity against Escherichia coli MTCC 51 after 24 hrs by agar dilution assay; assay type: functional; conditions: MTCC 51, 24 h
Staphylococcus aureus [8] = experiment: Antibacterial activity against Staphylococcus aureus MTCC 3160 after 24 hrs by agar diffusion assay; assay type: functional
Escherichia coli [9] = experiment: Antibacterial activity against Escherichia coli MTCC 51 after 24 hrs by agar diffusion assay; assay type: functional
Salmonella typhi [10] = experiment: Antibacterial activity against Salmonella typhi MTCC 733 after 24 hrs by agar dilution assay; assay type: functional, Salmonella enterica subsp. enterica serovar Typhi; conditions: Salmonella enterica, MTCC 733, 24 h

Row | SMILES | inhibition zone (IZ) (Salmonella typhi [1]) | MIC (Bacillus subtilis [2]) | MIC [3] | Activity [4] | MIC (Staphylococcus aureus [5]) | inhibition zone (IZ) (Bacillus subtilis [6]) | MIC (Escherichia coli [7]) | inhibition zone (IZ) (Staphylococcus aureus [8]) | Activity (Escherichia coli [9]) | MIC (Salmonella typhi [10]) | inhibition zone (IZ) [4] | inhibition zone (IZ) (Escherichia coli [9]) | Activity (Salmonella typhi [1]; Salmonella enterica subsp. enterica serovar Typhi) | Activity (Staphylococcus aureus [8]) | Activity (Bacillus subtilis [6])
1 | COc1ccc(-c2nnc3n2ccc2nnc(-c4ccc(OC)cc4)n23)cc1 | 10 mm | 64 µg/mL (≈ 172 µM) | > 64 µg/mL | inactive | 64 µg/mL (≈ 172 µM) | 10 mm | > 64 µg/mL | 10.83 mm | inactive | 64 µg/mL (≈ 172 µM) | – | – | – | – | –
2 | N[C@@H](C(=O)N[C@@H]1C(=O)N2C(C(=O)O)=C(Cl)CS[C@H]12)c1ccccc1 [CEFACLOR ANHYDROUS] | – | 8 µg/mL (≈ 21.8 µM) | 4 µg/mL (≈ 10.9 µM) | – | 4 µg/mL (≈ 10.9 µM) | – | 4 µg/mL (≈ 10.9 µM) | – | – | 2 µg/mL (≈ 5.44 µM) | – | – | – | – | –
3 | O=[N+]([O-])c1ccc(-c2nnc3n2ccc2nnc(-c4ccc([N+](=O)[O-])o4)n23)o1 | 35.16 mm | 0.5 µg/mL (≈ 1.31 µM) | 1 µg/mL (≈ 2.62 µM) | – | 8 µg/mL (≈ 20.9 µM) | 40 mm | 2 µg/mL (≈ 5.23 µM) | 20.83 mm | – | 1 µg/mL (≈ 2.62 µM) | 35 mm | 30 mm | – | – | –
4 | Cc1ccc(-c2nnc3n2ccc2nnc(-c4ccc(C)cc4)n23)cc1 | – | 8 µg/mL (≈ 23.5 µM) | > 64 µg/mL | inactive | > 64 µg/mL | 20.83 mm | > 64 µg/mL | – | inactive | > 64 µg/mL | – | – | inactive | inactive | –
5 | O=[N+]([O-])c1ccc(-c2nnc3n2ccc2nnc(-c4ccc([N+](=O)[O-])cc4)n23)cc1 | 30 mm | 1 µg/mL (≈ 2.49 µM) | 2 µg/mL (≈ 4.97 µM) | – | 1 µg/mL (≈ 2.49 µM) | 30 mm | 2 µg/mL (≈ 4.97 µM) | 30 mm | – | 1 µg/mL (≈ 2.49 µM) | 25.16 mm | 25 mm | – | – | –
6 | Clc1ccc(-c2nnc3n2ccc2nnc(-c4ccc(Cl)cc4)n23)cc1 | 20 mm | 8 µg/mL (≈ 21 µM) | > 64 µg/mL | inactive | 32 µg/mL (≈ 83.9 µM) | 20 mm | > 64 µg/mL | 15 mm | inactive | 8 µg/mL (≈ 21 µM) | – | – | – | – | –
7 | Brc1ccc(-c2nnc3n2ccc2nnc(-c4ccc(Br)cc4)n23)cc1 | 15 mm | > 64 µg/mL | > 64 µg/mL | inactive | > 64 µg/mL | – | > 64 µg/mL | – | inactive | 32 µg/mL (≈ 68.1 µM) | – | – | – | inactive | inactive
8 | Fc1ccc(-c2nnc3n2ccc2nnc(-c4ccc(F)cc4)n23)cc1 | 10 mm | 2 µg/mL (≈ 5.74 µM) | 4 µg/mL (≈ 11.5 µM) | – | 4 µg/mL (≈ 11.5 µM) | 25 mm | 4 µg/mL (≈ 11.5 µM) | 24.83 mm | inactive | 64 µg/mL (≈ 184 µM) | 25 mm | – | – | – | –
9 | COc1ccc(OC)c(-c2nnc3n2ccc2nnc(-c4cc(OC)ccc4OC)n23)c1 | 20 mm | 32 µg/mL (≈ 74 µM) | 8 µg/mL (≈ 18.5 µM) | – | 8 µg/mL (≈ 18.5 µM) | 15.16 mm | > 64 µg/mL | 20.16 mm | inactive | 8 µg/mL (≈ 18.5 µM) | 20 mm | – | – | – | –
10 | CC(=O)NC[C@H]1CN(c2ccc(N3CCOCC3)c(F)c2)C(=O)O1 [LINEZOLID] | – | 2 µg/mL (≈ 5.93 µM) | 8 µg/mL (≈ 23.7 µM) | – | – | – | 8 µg/mL (≈ 23.7 µM) | – | – | 2 µg/mL (≈ 5.93 µM) | – | – | – | – | –
11 | c1coc(-c2nnc3n2ccc2nnc(-c4ccco4)n23)c1 | 10 mm | 8 µg/mL (≈ 27.4 µM) | 64 µg/mL (≈ 219 µM) | – | 0.5 µg/mL (≈ 1.71 µM) | 20 mm | 64 µg/mL (≈ 219 µM) | 40 mm | – | 64 µg/mL (≈ 219 µM) | 10 mm | 10 mm | – | – | –
